The text below walks through data of US8378117B2 (priority 2005, dated 2013).

Experiment [1] has as its target T1, CB2 receptor (Homo sapiens, UniProt P34972).
T1 construct: expressed in transfected cells
The experiment in a line: Binding assay for CB2 agonists or inverse agonists (SK-N-MC membranes, [3H]-CP-55,940). The settings on record: for IC50: Cannabinoid CB2 Receptor Binding IC50, calculated by linear regression from percent inhibition at various test concentrations. An outline of the steps: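 Membranes from SK-N-MC cells stably expressing human CB2 were incubated with radioligand and test compounds for 90 min at 30 °C in Tris-HCl buffer, pH 7.5, with MgCl2, EDTA and fatty-acid-free BSA. Filter-bound radioactivity was counted; IC50 was derived by linear regression of percent inhibition.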

Experiment [2] addresses T2, CB1 receptor (Homo sapiens, UniProt P21554).
T2 construct: expressed in transfected cells
The experiment in a line: Modified binding assay, CB1 receptor in CHO cells, [3H]CP 55940. Particulars: [3H]CP 55940 0.5 nM, 120 minutes at 37° C. As for the experimental part: Additional receptor binding studies were performed with minor modifications as detailed below.
The human CB1 and CB2 receptors were stably expressed in CHO cells as described in Rinaldi-Carmona, M., Calandra, B., Shire, D., Bouaboula, M., Oustric, D., Barth, F., Casellas, P., Ferrara, P. and Le Fur, G. (1996) J. PharmacoL Exp. Ther., 278: 871-878 and Munro, S., Thomas, K. L. and Abu-Shaar, M. (1993) Nature, 365: 61-65, respectively. [^3H]CP 55940 (0.5 nM) was used as the radioligand for the CB1 receptor binding assay. [^3H]WIN 55212 (0.8 nM) was used as the radioligand for the CB2 receptor binding assay. Incubation was carried out for 120 minutes at 37° C.
The specific ligand binding to the receptors is defined as the difference between the total binding and the nonspecific binding determined in the presence of an excess of unlabelled ligand. The results are expressed as a percent of control specific binding ((measured specific binding/control specific binding)×100) obtained in the presence of the test compounds.
The IC50 values (concentration causing a half-maximal inhibition of control specific binding) were determined by non-linear regression analysis of the competition curves generated with mean replicate values using Hill equation curve fitting (where Y=specific binding, D=minimum specific binding, A=maximum specific binding, C=compound concentration, C50=IC50 and nH=slope factor): (Y=D+[(A−D)/(1+(C/C50)^nH)] CB1 and CB2 Receptor Binding Results
For compounds tested, an IC50 binding value was obtained from percent inhibition studies in which various test concentrations were used.

The target of experiment [3] is T1, CB2 receptor. The experiment in a line: Modified functional cell-based assay (Beta-Glo luminescence), CB2 receptor. The settings on record: CB2 EC50 (Receptor Functional Activity), one sample per compound, Cpd 237 n=3. As for the experimental part: Additional functional activity studies were performed with minor modifications. Beta galactosidase activity was quantified using the luminescent Beta-Glo Assay System (Promega Corp. Madison, Wis.) and an Orion Microplate Luminometer (Berthold Detection Systems, Oak Ridge, Tenn.). The EC50 values were calculated using GraphPad Prism and a four parameter logistic equation.
The functional activity EC50 value for compounds tested (shown in Table 8) were obtained from studies in which varying compound concentrations were used. With the exception of Cpd 237 (n=3), one sample for each compound was tested.

Experiment [4] addresses T2, CB1 receptor. Briefly: Binding assay for CB1 agonists or inverse agonists (SK-N-MC membranes, [3H]-CP-55,940). The settings on record: for inhibition at 0.2 µM: read-out: CB1 receptor binding percent inhibition, test concentration 0.2 μM (footnote 2). An outline of the steps:
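Membranes from SK-N-MC cells stably expressing human CB1 incubated with compound and [3H]-CP-55,940 ([…]) for 90 min at 30° C in Tris-HCl pH 7.5, MgCl2, EDTA, fatty-acid-free BSA. Non-specific binding defined with 10 uM WIN 55,212; filtration, scintillation count; IC50 by linear regression.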

Setting [5] is: Cannabinoid CB1 Receptor Binding IC50, calculated by linear regression from percent inhibition at various test concentrations.

Molecules are shown by their SMILES. Where only a bound is given, the exact number is not on record here.

T1 sequence (P34972 whole entry): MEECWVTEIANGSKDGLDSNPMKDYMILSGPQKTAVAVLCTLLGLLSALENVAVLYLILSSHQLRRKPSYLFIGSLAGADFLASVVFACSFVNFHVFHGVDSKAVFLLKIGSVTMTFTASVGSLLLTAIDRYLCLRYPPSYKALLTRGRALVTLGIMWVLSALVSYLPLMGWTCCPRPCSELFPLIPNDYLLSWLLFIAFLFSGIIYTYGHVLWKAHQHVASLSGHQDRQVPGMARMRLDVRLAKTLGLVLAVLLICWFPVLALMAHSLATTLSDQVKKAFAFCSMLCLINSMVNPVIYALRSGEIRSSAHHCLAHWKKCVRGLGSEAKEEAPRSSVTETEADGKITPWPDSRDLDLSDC
T2 sequence (P21554 whole entry): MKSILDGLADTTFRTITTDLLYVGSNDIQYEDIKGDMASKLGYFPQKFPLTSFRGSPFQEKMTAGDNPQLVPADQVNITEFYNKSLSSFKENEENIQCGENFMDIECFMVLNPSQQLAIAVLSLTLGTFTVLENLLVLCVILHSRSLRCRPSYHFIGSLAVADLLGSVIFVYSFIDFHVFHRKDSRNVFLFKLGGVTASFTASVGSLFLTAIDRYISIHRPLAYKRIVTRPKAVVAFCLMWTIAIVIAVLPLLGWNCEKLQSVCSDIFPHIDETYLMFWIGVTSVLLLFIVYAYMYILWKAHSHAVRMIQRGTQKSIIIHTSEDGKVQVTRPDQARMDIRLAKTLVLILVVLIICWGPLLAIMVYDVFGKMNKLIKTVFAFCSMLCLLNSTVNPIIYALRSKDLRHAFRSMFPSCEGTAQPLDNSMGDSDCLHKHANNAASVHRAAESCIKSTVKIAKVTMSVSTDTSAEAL

In the case of `O=C(N[C@H](CO)c1ccccc1)c1n[nH]c2c1CCCCC2Cc1cccc(Cl)c1` (single isomer, unassigned) [Cpd 230, (8R*)-8-(3-chloro-benzyl)-1,4,5,6,7,8-hexahydro-cycloheptapyrazole-3-carboxylic acid [(1S)-2-hydroxy-1-phenyl-ethyl]-amide], the IC50 on CB2 receptor [1] was 40 nM; on CB1 receptor [2], 370 nM; at CB1 receptor [4] (setting [5]), 300 nM. Also, the EC50 on CB2 receptor [3] turned out to be 11 nM.
For `O=C(N[C@H](CO)c1ccccc1)c1n[nH]c2c1CCCCC2Cc1cccc(Cl)c1` (single isomer, unassigned) [Cpd 231, (8S*)-8-(3-chloro-benzyl)-1,4,5,6,7,8-hexahydro-cycloheptapyrazole-3-carboxylic acid [(1S)-2-hydroxy-1-phenyl-ethyl]-amide], the IC50 is 200 nM on CB2 receptor [1]; more than 3000 nM at CB1 receptor [2]; 300 nM on CB1 receptor [4] (read-out: Cannabinoid CB1 Receptor Binding IC50, calculated by linear regression from percent inhibition at various test concentrations). Moreover, a half-maximal response at CB2 receptor [3] (EC50) required 82 nM.
For `C[C@H](NS(=O)(=O)/C=C/c1n[nH]c2c1CCCCC2Cc1cccc(F)c1)c1ccccc1` (single isomer, unassigned) [Cpd 232, (2E)-2-[(8R*)-8-(3-fluoro-benzyl)-1,4,5,6,7,8-hexahydro-cycloheptapyrazol-3-yl]-ethenesulfonic acid [(1S)-1-phenyl-ethyl]-amide], the IC50 at CB2 receptor [1] was 60 nM; at CB1 receptor [4] (setting [5]) it was 300 nM. In addition, the “CB2 receptor binding percent inhibition” value at CB2 receptor [1] (test concentration 0.2 μM (footnote 2), 0.2 µM) is listed as 81%. At CB2 receptor [3], a half-maximal effect (EC50) was put at 150 nM. The inhibition at 0.2 µM at CB1 receptor [4] stood at 0%.
`C[C@H](NS(=O)(=O)/C=C/c1n[nH]c2c1CCCC/C2=C\c1ccc(Cl)cc1)c1ccccc1` [Cpd 237, (2E,8E)-2-[8-(4-chloro-benzylidene)-1,4,5,6,7,8-hexahydro-cycloheptapyrazol-3-yl]-ethenesulfonic acid [(1S)-1-phenyl-ethyl]-amide]: the values for the IC50 on CB2 receptor [1], at CB1 receptor [2] and on CB1 receptor [4] (setting [5]) were 100 nM, more than 3000 nM and 300 nM, respectively. For the same compound, the inhibition at 0.2 µM came to 64% on CB2 receptor [1] (test concentration 0.2 μM (footnote 2), read-out: CB2 receptor binding percent inhibition) and 0% on CB1 receptor [4]. At CB2 receptor [3], this compound displayed an EC50 of 3200 nM.

Broadly, the IC50 is the midpoint of a concentration-inhibition curve. One may read the EC50 as the midpoint of the concentration-response curve.
